Patent publication US20250144067A1, “PERSONALIZED STARVATION THERAPY FOR CANCER” (Faeth Therapeutics, Inc., priority 2021, published 2025)
Structures can show the parent of a compound that is named as a salt. Where two headings read alike, the source gives them in different places.

Assays:
[1] = tested on: NCI-H292 lung cancer cells; assay: FDA drug screening, complete media vs cholesterol-free media without statin (TABLE 1); type: cell-based, human
[2] = tested on: NCI-H292 lung cancer cells; assay: FDA drug screening, complete media vs cholesterol-free media with simvastatin (TABLE 2); type: cell-based, human
[3] = Complete minus Cholesterol-free, greater than 0 enhanced anti-cancer activity, about 0 neutral, below 0 antagonist
[4] = NCI-H292 cells, FDA drug library screen, cholesterol-free media without statin
[5] = NCI-H292 cells, FDA drug library screen, complete media
[6] = NCI-H292 cells, cholesterol-free media with simvastatin 0.04 μM, FDA drug library screen (TABLE 2)
[7] = NCI-H292 cells, complete media, FDA drug library screen (TABLE 2)
[8] = complete media minus cholesterol-free media + simvastatin (0.04 μM), >0 enhanced anti-cancer activity, about 0 neutral, <0 antagonist
[9] = Complete minus Cholesterol-free, >0 enhanced anti-cancer activity, about 0 neutral, <0 antagonist
[10] = NCI-H292 cells, cholesterol-free media without statin, FDA drug library screen
[11] = NCI-H292 cells, complete media, FDA drug library screen
[12] = NCI-H292 cells, cholesterol-free media with simvastatin 0.04 μM, cell growth value in FDA drug screen
[13] = NCI-H292 cells, complete media, cell growth value in FDA drug screen
[14] = complete media minus cholesterol-free media + simvastatin, >0 enhanced anti-cancer activity, about 0 neutral, <0 antagonist
[15] = Complete minus Cholesterol-free, […]
[16] = NCI-H292 cells, cholesterol-free media without statin
[17] = NCI-H292 cells, FDA drug library screen, cholesterol-free media with simvastatin 0.04 μM
[18] = complete media vs cholesterol-free media + simvastatin (0.04 μM), >0 enhanced anti-cancer activity, about 0 neutral, <0 antagonist
[19] = complete vs cholesterol-free media, >0 enhanced anti-cancer activity, about 0 neutral, <0 antagonist
[20] = complete media minus cholesterol-free media + simvastatin (0.04 μM), […]
[21] = NCI-H292 cells, drug in cholesterol-free media with simvastatin 0.04 μM
[22] = NCI-H292 cells, drug in complete media
[23] = complete vs cholesterol-free media, greater than 0 enhanced anti-cancer activity, about 0 neutral, below 0 antagonists

Compound: C1CCC(C(CC2CCCCN2)C2CCCCC2)CC1 (centres unmarked) [Perhexiline maleate]
- Difference [1, 3]: −0.14
- Cholesterol-free [1, 4]: 1.139
- Complete [1, 5]: 1.003
- Cholesterol-free media + simvastatin (0.04 μM) [2, 6]: 0.8717
- Complete Media [2, 7]: 0.811
- Difference [2, 8]: −0.06

Compound: O=C1c2c(O)ccc(O)c2C(=O)c2c(NCCNCCO)ccc(NCCNCCO)c21 [Mitoxantrone (dihydrochloride)]
- Difference [1, 9]: 0.00
- Cholesterol-free [1, 10]: −0.002893
- Complete [1, 11]: −0.002012
- Cholesterol-free media + simvastatin (0.04 μM) [2, 12]: 0.006643
- Complete Media [2, 13]: 0.04976
- Difference [2, 14]: 0.04

Compound: O=C(O)CCC(=O)c1ccc(-c2ccccc2)cc1 [Fenbufen]
- Difference ([1]; Complete minus Cholesterol-free, greater than 0 enhanced anti-cancer activity, about 0 neutral, below 0 antagonists): −0.96
- Cholesterol-free ([1]; NCI-H292 cells in cholesterol-free media without statin): 1.772
- Complete ([1]; NCI-H292 cells in complete media): 0.811
- Cholesterol-free media + simvastatin (0.04 μM) [2, 12]: 0.8759
- Complete Media [2, 13]: 0.8928
- Difference [2, 14]: 0.02

Compound: Tenofovir alafenamide hemifumarate
- Cholesterol-free [1]: 0.4256
- Complete [1]: 0.5492
- Difference [1]: 0.12
- Cholesterol-free media + simvastatin (0.04 μM) [2]: 0.5107
- Complete Media [2]: 0.4195
- Difference [2]: −0.09

Compound: Cc1nnc(C(=O)NC(C)(C)c2nc(C(=O)NCc3ccc(F)cc3)c(O)c(=O)n2C)o1 [Raltegravir (potassium salt)]
- Cholesterol-free [1]: 1.332
- Complete [1]: 0.9188
- Difference [1]: −0.41
- Cholesterol-free media + simvastatin (0.04 μM) [2]: 0.8687
- Complete Media [2]: 0.9051
- Difference [2]: 0.04

Compound: CC(=O)OCC1=C(C(=O)O)N2C(=O)[C@@H](NC(=O)CSC(=NC(C)C)NC(C)C)[C@H]2SC1 [Cefathiamidine]
- Difference [1, 15]: −0.30
- Cholesterol-free [1, 16]: 1.276
- Complete ([1]; NCI-H292 cells, complete media): 0.9789
- Cholesterol-free media + simvastatin (0.04 μM) [2, 17]: 0.9136
- Complete Media [2, 5]: 0.833
- Difference ([2]; complete media vs cholesterol-free media + simvastatin (0.04 μM), […]): −0.08

Compound: CC1(C)[C@@H](O[C@H]2O[C@H](C(=O)O)[C@@H](O)[C@H](O)[C@H]2O[C@@H]2O[C@H](C(=O)O)[C@@H](O)[C@H](O)[C@H]2O)CC[C@]2(C)[C@H]3C(=O)C=C4[C@@H]5C[C@@](C)(C(=O)O)CC[C@]5(C)CC[C@@]4(C)[C@]3(C)CC[C@@H]12 [Glycyrrhizic acid]
- Difference [1, 3]: −0.08
- Cholesterol-free [1, 4]: 1.146
- Complete [1, 5]: 1.061
- Cholesterol-free media + simvastatin (0.04 μM) [2, 17]: 1.042
- Complete Media [2, 5]: 0.907
- Difference [2, 18]: −0.13

Compound: Nc1nnc(-c2cccc(Cl)c2Cl)c(N)n1 [Lamotrigine]
- Difference [1, 3]: −0.08
- Cholesterol-free [1, 4]: 1.043
- Complete [1, 5]: 0.9644
- Cholesterol-free media + simvastatin (0.04 μM) ([2]; NCI-H292 cells, FDA library drug in cholesterol-free media with simvastatin 0.04 μM): 1.437
- Complete Media ([2]; NCI-H292 cells, FDA library drug in complete media): 1.093
- Difference [2, 18]: −0.34

Compound: Cc1cc(S(=O)(=O)O)c2c(C)ccc(C(C)C)cc1-2 [Sodium gualenate]
- Difference [1, 3]: −0.12
- Cholesterol-free [1, 4]: 0.9704
- Complete [1, 5]: 0.8542
- Cholesterol-free media + simvastatin (0.04 μM) [2, 6]: 0.8796
- Complete Media [2, 7]: 0.8094
- Difference [2, 8]: −0.07

Compound: CC(=O)Oc1cc(C(F)(F)F)ccc1C(=O)O [Triflusal]
- Cholesterol-free [1, 10]: 1.019
- Complete [1, 11]: 1.117
- Difference [1, 19]: 0.10
- Cholesterol-free media + simvastatin (0.04 μM) [2, 17]: 1.154
- Complete Media [2, 5]: 1.083
- Difference [2, 18]: −0.07

Compound: C[C@@H](OC[C@@]1(c2ccccc2)CC[C@]2(CCC(=O)N2)CN1)c1cc(C(F)(F)F)cc(C(F)(F)F)c1 [Rolapitant]
- Difference [1, 9]: −0.04
- Cholesterol-free [1, 10]: 0.9892
- Complete [1, 11]: 0.9523
- Cholesterol-free media + simvastatin (0.04 μM) [2, 17]: 1.001
- Complete Media [2, 5]: 0.9304
- Difference [2, 18]: −0.07

Compound: Nc1ccn([C@@H]2O[C@H](CO)[C@@H](O)C2(F)F)c(=O)n1 [Gemcitabine (hydrochloride)]
- Difference [1, 9]: −0.04
- Cholesterol-free [1, 10]: 0.05262
- Complete [1, 11]: 0.01403
- Cholesterol-free media + simvastatin (0.04 μM) [2, 6]: 0.04392
- Complete Media [2, 7]: 0.02306
- Difference [2, 8]: −0.02

Compound: CC(C)[C@]12O[C@H]1[C@@H]1O[C@@]13[C@@]1(C)CCC4=C(COC4=O)[C@@H]1C[C@@H]1O[C@@]13C2=O [Triptonide]
- Difference [1, 15]: −0.01
- Cholesterol-free [1, 10]: 0.01808
- Complete [1, 11]: 0.005807
- Cholesterol-free media + simvastatin (0.04 μM) [2, 6]: 0.02446
- Complete Media [2, 7]: 0.02522
- Difference [2, 20]: 0.00

Compound: O=c1[nH]c(=O)n([C@H]2C[C@H](O)[C@@H](CO)O2)cc1I [Idoxuridine]
- Cholesterol-free [1, 10]: 0.8751
- Complete [1, 11]: 1.387
- Difference [1, 19]: 0.51
- Cholesterol-free media + simvastatin (0.04 μM) [2, 21]: 1.124
- Complete Media [2, 22]: 0.9636
- Difference [2, 18]: −0.16

Compound: C=C1CC[C@@H]2[C@](C)(CO)[C@H](O)CC[C@@]2(C)[C@@H]1C/C=C1/C(=O)OC[C@H]1O [Andrographolide]
- Cholesterol-free [1, 10]: 0.8912
- Complete [1, 11]: 0.9868
- Difference [1, 19]: 0.10
- Cholesterol-free media + simvastatin (0.04 μM) [2, 17]: 1.859
- Difference [2, 8]: −0.94

Compound: CC[C@H]1OC(=O)[C@H](C)[C@@H](O[C@H]2C[C@@](C)(OC)[C@@H](O)[C@H](C)O2)[C@H](C)[C@@H](O[C@@H]2O[C@H](C)C[C@H](N(C)C)[C@H]2O)[C@](C)(O)C[C@@H](C)/C(=N\OCOCCOC)[C@H](C)[C@@H](O)[C@]1(C)O [Roxithromycin]
- Cholesterol-free [1, 10]: 0.9904
- Complete [1, 11]: 1.336
- Difference [1, 19]: 0.35
- Cholesterol-free media + simvastatin (0.04 μM) [2, 17]: 0.9837
- Complete Media [2, 5]: 0.8382
- Difference [2, 18]: −0.15

Compound: OC[C@H]1O[C@@H](n2cnc3c2NC=NC[C@H]3O)C[C@@H]1O [Pentostatin]
- Cholesterol-free [1]: 1.242
- Complete [1]: 0.8025
- Difference [1]: −0.44
- Cholesterol-free media + simvastatin (0.04 μM) [2]: 1.49
- Complete Media [2]: 1.245
- Difference [2]: −0.25

Compound: Cc1c(O)c(=O)ccn1C [Deferiprone]
- Cholesterol-free [1, 16]: 1.443
- Complete ([1]; NCI-H292 cells, complete media): 1.044
- Difference [1, 23]: −0.40
- Cholesterol-free media + simvastatin (0.04 μM) [2, 6]: 1.047
- Complete Media [2, 7]: 1.061
- Difference [2, 8]: 0.01

Compound: Triamcinolone (acetonide)
- Difference [1, 9]: −0.04
- Cholesterol-free [1, 10]: 0.5663
- Complete [1, 11]: 0.5288
- Cholesterol-free media + simvastatin (0.04 μM) [2, 6]: 0.6359
- Complete Media [2, 7]: 0.588
- Difference [2, 8]: −0.05

Compound: Cc1cn[nH]c1 [Fomepizole]
- Difference [1, 9]: −0.26
- Cholesterol-free [1, 16]: 1.239
- Complete ([1]; NCI-H292 cells, complete media): 0.9771
- Cholesterol-free media + simvastatin (0.04 μM) [2, 17]: 0.8562
- Complete Media [2, 5]: 1.121
- Difference [2, 14]: 0.26

Compound: Cc1cnc(C(=O)NCCc2ccc(S(=O)(=O)NC(=O)NC3CCCCC3)cc2)cn1 [Glipizide]
- Cholesterol-free [1, 16]: 1.844
- Complete ([1]; NCI-H292 cells, complete media): 1.46
- Difference [1, 23]: −0.38
- Cholesterol-free media + simvastatin (0.04 μM) [2, 21]: 1.42
- Complete Media [2, 22]: 1.2
- Difference [2, 18]: −0.22

Compound: Merbromin
- Cholesterol-free [1, 10]: 1.294
- Complete [1, 11]: 1.544
- Difference ([1]; complete vs cholesterol-free media, […]): 0.25
- Cholesterol-free media + simvastatin (0.04 μM) [2, 6]: 1.023
- Complete Media [2, 7]: 1.006
- Difference [2, 20]: −0.02
